From US9115147B2, “Tricyclic derivatives and their pharmaceutical use and compositions” (Cephalon, Inc., priority 2009, dated 2015)
pKi: −log10 of the molar value.

These molecules were tested against T1, human 5-HT6 receptor (Homo sapiens, UniProt P50406) (assay: Human 5-HT6 Receptor Binding Assay ([3H]LSD, scintillation beads)). Details: Human 5-HT6 Ki app (nM), membranes of CHO-K1 cells with recombinant human 5-HT6 receptor, 4 nM [3H]LSD, Cheng-Prusoff.
T1 construct: host or cells: CHO-K1 cells, stably transfected; membranes prepared in house
Description: Human 5-HT6 Receptor Binding Assay
Membranes were prepared from CHO-K1 cells stably transfected with the human 5-HT6 receptor (Euroscreen; ES-316-C). The cells were grown in Gibco Advanced DMEM-F12 (Cat#12634010) containing 2% dialyzed FBS (Hyclone Cat#SH30079.03). The cells were harvested in phosphate buffered saline (PBS) containing 0.1 mM EDTA and pelleted by centrifugation (1000×g), the supernatant was discarded and the pellets were stored at −80° C. prior to membrane preparation. Membranes were prepared as previously described (J Bio Chem. 1992, 267 (14) 9844-51). Briefly, frozen cell pellet was resuspended in a lysis buffer containing 5 mM Tris-HCl (pH 7.5), 5 mM EDTA and 1 complete EDTA-free protease inhibitor tablet (Roche Applied Science, Indianapolis, Ind.) per 50 mL buffer, and homogenized with a tissue homogenizer. The cell lysate was then centrifuged at 40,000×g for 30 min at 4° C. to collect the membranes. The membrane pellets were washed in membrane buffer (50 mM Tris-HCl (pH 7.5), 0.6 mM EDTA, 5 mM MgCl2, 1 complete EDTA-free protease inhibitor tablet per 50 mL buffer) using a tissue homogenizer. The membranes were centrifuged at 40,000×g for 30 min at 4° C. and the pellets were resuspended in membrane buffer containing 250 mM sucrose, and protein concentration was determined using the Coomassie Plus kit (Pierce Biotechnology, Rockford, Ill.).
Membranes prepared from cells expressing recombinant human 5-HT6 receptor (h5-HT6) were resuspended in assay buffer containing 50 mM Tris HCl, (pH7.4), 4 mM CaCl2, 10 μg/mL saponin, and 0.1% (w/v) ascorbic acid. Membranes were preincubated using 1.75 μg membrane protein and 0.25 mg FlashBlue scintillation beads (PerkinElmer catalogue #FB001) per well at 4° C. for 30 min. […] Test compounds or assay controls for total and non-specific binding were diluted in DMSO as 100× solutions and serially diluted by half log concentrations on a Perkin Elmer JANUS Automated Workstation. Serotonin (10 μM final concentration) was used to determine non-specific binding in the assay. Plates were read using the Microbeta Trilux 1450 LSC and luminescence counter. Data were analyzed by nonlinear […] using the dose-response equation (variable slope) to calculate IC50 in XLfit4 (ID Business Solutions Inc.): y=(Bottom+((Top−Bottom)/(1+((IC50/x)^Hill slope))))
Ki value was then calculated according to the Cheng-Prusoff method using the equation below (Cheng and Prusoff, 1973): Ki, app=IC50/(1+([radioligand]/Kd))

T1 sequence (P50406 whole entry): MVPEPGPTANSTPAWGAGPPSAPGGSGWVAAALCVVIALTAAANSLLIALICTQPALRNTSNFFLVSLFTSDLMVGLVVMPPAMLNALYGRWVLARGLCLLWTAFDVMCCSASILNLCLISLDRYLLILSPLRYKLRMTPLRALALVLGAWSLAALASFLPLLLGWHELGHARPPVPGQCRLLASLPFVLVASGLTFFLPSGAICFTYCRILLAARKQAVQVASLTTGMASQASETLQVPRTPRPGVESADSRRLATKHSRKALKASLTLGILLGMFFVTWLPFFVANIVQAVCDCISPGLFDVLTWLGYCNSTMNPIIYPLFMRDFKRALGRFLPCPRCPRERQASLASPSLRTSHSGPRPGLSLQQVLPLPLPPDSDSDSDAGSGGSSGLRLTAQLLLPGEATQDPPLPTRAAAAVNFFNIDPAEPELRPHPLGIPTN

Compound	Ki [nM]
COc1cncc(S(=O)(=O)c2ccc3c(c2)OCC2NCCC32)c1 (single isomer, unassigned) [Example 33, 7-[(5-methoxypyridin-3-yl)sulfonyl]-1,2,3,3a,4,9b-hexahydrochromeno[3,4-b]pyrrole]	< 500

Same assay, conditions: membranes of CHO-K1 cells with recombinant human 5-HT6 receptor, 4 nM [3H]LSD, Cheng-Prusoff; read-out: Human 5-HT6 Ki app

Compound	pKi
O=S(=O)(c1ccccc1)c1ccc2c(c1)OCC1C2CCN1C1CCCCC1 (single isomer, unassigned) [Example 64, 3-cyclohexyl-7-(phenylsulfonyl)-1,2,3,3a,4,9b-hexahydrochromeno[3,4-b]pyrrole]	< 6.00
O=S(=O)(c1ccccc1)c1ccc2c(c1)OCC1C2CCN1CC(F)F (single isomer, unassigned) [Example 77, 3-(2,2-difluoroethyl)-7-(phenylsulfonyl)-1,2,3,3a,4,9b-hexahydrochromeno[3,4-b]pyrrole]	< 6.00
O=S(=O)(c1cncc(Br)c1)c1ccc2c(c1)OCC1C2CCN1C1CCC1 (single isomer, unassigned) [Example 78, 7-[(5-bromopyridin-3-yl)sulfonyl]-3-cyclobutyl-1,2,3,3a,4,9b-hexahydrochromeno[3,4-b]pyrrole]	< 6.00
COCCN1CCC2c3ccc(S(=O)(=O)c4ccccc4)cc3OCC21 (single isomer, unassigned) [Example 99, 3-(2-methoxyethyl)-7-(phenylsulfonyl)-1,2,3,3a,4,9b-hexahydrochromeno[3,4-b]pyrrole]	< 6.00

Next, values leading:

pKi	Compound
> 6.30	O=S(=O)(c1cc(Cl)cc(Cl)c1)c1ccc2c(c1)OCC1NCCC21 (single isomer, unassigned) [Example 12, 7-[(3,5-dichlorophenyl)sulfonyl]-1,2,3,3a,4,9b-hexahydrochromeno[3,4-b]pyrrole]
> 6.30	O=S(=O)(c1cc(Cl)cc(Cl)c1)c1ccc2c(c1)OCC1NCCC21 (single isomer, unassigned) [Example 3, 7-[(3,5-dichlorophenyl)sulfonyl]-1,2,3,3a,4,9b-hexahydrochromeno[3,4-b]pyrrole]
> 6.30	[O-][S+](c1ccccc1)c1ccc2c(c1)OCC1NCCC21 (racemic) [Example 25, 7-(Phenylsulfinyl)-1,2,3,3a,4,9b-hexahydrochromeno[3,4-b]pyrrole]
> 6.30	CC(C)Oc1cccc(S(=O)(=O)c2ccc3c(c2)OCC2NCCC32)c1 (single isomer, unassigned) [Example 9, 7-{[3-(propan-2-yloxy)phenyl]sulfonyl}-1,2,3,3a,4,9b-hexahydrochromeno[3,4-b]pyrrole]
> 6.30	[O-][S+](c1ccccc1)c1ccc2c(c1)OCC1NCCC21 (racemic) [Example 106, 7-(phenylsulfinyl)-1,2,3,3a,4,9b-hexahydrochromeno[3,4-b]pyrrole]
6.00 to 6.30	O=S(=O)(c1ccccc1)c1ccc2c(c1)OCC1C2CCN1C1CCOC1 (single isomer, unassigned) [Example 65, 7-(phenylsulfonyl)-3-(tetrahydrofuran-3-yl)-1,2,3,3a,4,9b-hexahydrochromeno[3,4-b]pyrrole]
> 6.30	O=S(=O)(c1ccccc1)c1ccc2c(c1)OCC1C2CCN1CCCO (single isomer, unassigned) [Example 93, 3[7-(phenylsulfonyl)-1,3a,4,9b-tetrahydrochromeno[3,4-b]pyrrol-3(2H)-yl]propan-1-ol]
> 6.30	O=S(=O)(c1ccccc1)c1ccc2c(c1)OCC1C2CCN1CCCO (single isomer, unassigned) [Example 100, 3-[7-(phenylsulfonyl)-1,3a,4,9b-tetrahydrochromeno[3,4-b]pyrrol-3(2H)-yl]propan-1-ol]

Same assay, conditions: read-out: Human 5-HT6 Ki app; membranes of CHO-K1 cells with recombinant human 5-HT6 receptor, 4 nM [3H]LSD, Cheng-Prusoff

Compound	pKi
O=S(=O)(c1cncc(Br)c1)c1ccc2c(c1)OCC1NCCC21 (single isomer, unassigned) [Example 31, 7-[(5-bromopyridin-3-yl)sulfonyl]-1,2,3,3a,4,9b-hexahydrochromeno[3,4-b]pyrrole]	> 6.30
O=S(=O)(c1cncc(Cl)c1)c1ccc2c(c1)OCC1NCCC21 (single isomer, unassigned) [Example 34, 7-[(5-chloropyridin-3-yl)sulfonyl]-1,2,3,3a,4,9b-hexahydrochromeno[3,4-b]pyrrole]	> 6.30
